# Reference: ChEMBL document CHEMBL1201862, “PubChem BioAssay data set” (2004)
# Activity calls are given as the source filed them.
# Columns and labels:
# [1] = HEK293 Cytotoxicity Assay Measured in Cell-Based System Using Plate Reader - 7071-01_Inhibitor_Dose_CherryPick_Activity_Set2.; assay type: functional
# [2] = tested on: HEK293; assay: HEK293T cell cytotoxicity, dose response, cytotoxicity control, ATP luminescence, cherry-pick samples (AID 687005); assay type: functional, cell-based; details: Homo sapiens;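 note: cells exposed to compound for 48 hours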
# [3] = HepG2 cell cytotoxicity, dose response, cytotoxicity control, cherry-picks, set 5 (AID 1053118); assay type: functional, cell-based
# [4] = HEK293 cell cytotoxicity, dose response, cytotoxicity control, cherry-picks, set 5 (AID 1053117); assay type: functional, cell-based
# [5] = cytotoxicity toward NIH3T3 fibroblasts, dose response, counter-screen, cell-based, ATP luminescence, mouse fibroblasts (AID 2010); assay type: functional;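 note: cells exposed to compound for about 90 hours before reading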
# [6] = cells
# [7] = inhibitors of intracellular T. cruzi replication, confirmation, NIH3T3 host cells, beta-gal luminescence (AID 2044); assay type: functional, cell-based;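 note: intracellular parasites grown in NIH/3T3 mouse fibroblasts as host cells; luminescent beta-galactosidase reporter signal from transgenic T. cruzi replicating inside host cells; inhibitors lower the luminescence signal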
# [8] = biological target: 1-phosphatidylinositol 4,5-bisphosphate phosphodiesterase beta-3 (Homo sapiens, UniProt Q01970); assay: Fluorescence-based biochemical high throughput dose response assay to identify inhibitors of phospholipase C isozymes (PLC-B3).
# [9] = biological target: 1-phosphatidylinositol 4,5-bisphosphate phosphodiesterase gamma-1 (Homo sapiens, UniProt P19174); assay: Counterscreen for inhibitors of phospholipase C isozymes (PLC-B3): Fluorescence-based biochemical high throughput dose response assay to identify inhibitors of phospholipase C isozymes (PLC-gamma1).
# [10] = biological target: fMet-Leu-Phe receptor (Homo sapiens, UniProt P21462); assay: FPR ligands, dose response (AID 519); assay type: functional
# [11] = biological target: Disintegrin and metalloproteinase domain-containing protein 17 (Homo sapiens, UniProt P78536); assay: ADAM17 protease inhibitors, dose response, counter-screen for ADAM10 exosite inhibitor project, biochemical, quenched FRET substrate (AID 743253)
# [12] = ADAM10 inhibitors, peptide cleavage, dose response, biochemical, QFRET (AID 743254);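 note: ADAM10 enzyme with the DM2 quenched FRET peptide as substrate; EDANS fluorescence gain as the protease cuts the substrate; inhibitor potency against ADAM10 proteolytic activity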
# [13] = biological target: T1, Aryl hydrocarbon receptor (Homo sapiens, UniProt P35869); assay: Luminescence-based cell-based high throughput dose response assay for activators of the Aryl Hydrocarbon Receptor (AHR). [Related pubchem assays: 2796 (Primary screen (AHR activators in singlicate)), 2845 (Confirmation screen (AHR activators in triplicate)), 434939 (Counterscreen (PXR activators in triplicate)), 2804 (Summary (AHR activators))]; assay type: ADME
# T1 sequence (P35869 whole entry): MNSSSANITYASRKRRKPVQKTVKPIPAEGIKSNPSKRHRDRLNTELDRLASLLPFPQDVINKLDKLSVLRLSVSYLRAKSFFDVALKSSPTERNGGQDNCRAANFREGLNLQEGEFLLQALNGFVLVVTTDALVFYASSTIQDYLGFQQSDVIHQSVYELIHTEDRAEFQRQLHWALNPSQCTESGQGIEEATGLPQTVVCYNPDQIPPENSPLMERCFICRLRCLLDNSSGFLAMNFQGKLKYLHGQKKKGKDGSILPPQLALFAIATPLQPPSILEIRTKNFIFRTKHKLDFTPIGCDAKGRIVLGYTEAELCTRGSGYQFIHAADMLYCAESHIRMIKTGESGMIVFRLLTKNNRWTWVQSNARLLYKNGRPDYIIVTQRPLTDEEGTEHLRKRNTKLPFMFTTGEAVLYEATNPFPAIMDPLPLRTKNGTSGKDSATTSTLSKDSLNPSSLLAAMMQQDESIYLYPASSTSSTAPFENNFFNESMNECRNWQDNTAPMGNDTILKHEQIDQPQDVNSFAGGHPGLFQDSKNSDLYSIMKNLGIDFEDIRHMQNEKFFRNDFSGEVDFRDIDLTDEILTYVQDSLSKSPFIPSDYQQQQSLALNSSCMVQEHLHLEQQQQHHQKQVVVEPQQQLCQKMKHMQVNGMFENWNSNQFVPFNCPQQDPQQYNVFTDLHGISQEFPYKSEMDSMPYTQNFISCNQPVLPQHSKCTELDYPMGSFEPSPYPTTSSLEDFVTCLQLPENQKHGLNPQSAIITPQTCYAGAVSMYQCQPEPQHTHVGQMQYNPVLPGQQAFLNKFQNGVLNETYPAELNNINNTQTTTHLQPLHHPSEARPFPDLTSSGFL
# [14] = inhibitors of PGC1a acetylation in cells, dose response, cell-based, cherry-picked samples (AID 720514); assay type: functional;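 note: potency may reflect raised or lowered acetylation signal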
# [15] = tested on: Vero; assay: cells; assay type: functional, cell-based; details: Chlorocebus sabaeus
# [16] = tested on: Vero; assay: cells; assay type: functional; details: Chlorocebus sabaeus
# [17] = tested on: Vero; assay: host cell cytotoxicity of antiviral hits, dose response, cytotoxicity control for West Nile virus antiviral project, secondary assay (AID 1650); assay type: functional; details: Chlorocebus sabaeus
# [18] = biological target: Transthyretin (Homo sapiens, UniProt P02766); assay: Luminescence-based cell-based high throughput dose response assay to identify activators of Transthyretin (TTR) transcription.; assay type: functional
# [19] = microbe, parasite or virus in culture; assay type: functional; details: Mycobacterium tuberculosis
# [20] = human group III sPLA2 inhibitors, dose response, biochemical, QFRET, IC50 (AID 743457);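 note: green fluorescence rise as the enzyme cleaves BODIPY PC-A2 in liposomes; potency for inhibition of the enzyme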
# [21] = biological target: Nonstructural protein 1 (Influenza A virus, UniProt Q194T2); assay type: functional, Influenza A virus (A/California/07/2009(H1N1))
# [22] = tested on: BJ; assay: cells; assay type: functional, cell-based; details: Homo sapiens
# [23] = inhibitors of firefly luciferase expression or activity, dose response, H4 neuroglioma cells, luminescence (AID 1990); assay type: functional, cell-based
# [24] = cytotoxicity in MIN6 insulinoma cells, dose response, cytotoxicity control, cell-based, mouse insulinoma (AID 2122); assay type: functional;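 note: confirmatory high-throughput counterscreen run to flag cytotoxic compounds; mouse MIN-6 beta cells carrying an insulin promoter eGFP reporter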
# [25] = cytotoxicity toward DRD oncogenic fibroblasts, dose response, cell-based, non-viral oncogenic, luminescence (AID 1934); assay type: functional; details: Homo sapiens
# [26] = Luminescence Cell-Based Dose Response HTS to Identify Inhibitors of 5'UTR Stem-Loop Driven Prion Protein mRNA Translation in H4 Neuroglioblastoma Cells. [Related pubchem assays: 1827 (Project Summary), 1813 (Primary HTS)]; assay type: functional
# [27] = inhibitors of SNCA 5'UTR-driven reporter translation, confirmation, H4 neuroglioma cells, luminescence (AID 1988); assay type: functional, cell-based
# [28] = biological target: T2, Heat shock factor protein 1 (Mus musculus, UniProt P38532); assay: HSF1 potentiators in luciferase reporter cells, confirmation, cell-based, NIH3T3, luminescence, dose retest (AID 435004); assay type: functional;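 note: stress induced by proteasome inhibitor MG132 added 30 min after compound; luciferase reporter driven by HSF1 response element in NIH3T3 cells; actives raise luminescence as potentiators of the MG132 stress response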
# T2 sequence (P38532 whole entry): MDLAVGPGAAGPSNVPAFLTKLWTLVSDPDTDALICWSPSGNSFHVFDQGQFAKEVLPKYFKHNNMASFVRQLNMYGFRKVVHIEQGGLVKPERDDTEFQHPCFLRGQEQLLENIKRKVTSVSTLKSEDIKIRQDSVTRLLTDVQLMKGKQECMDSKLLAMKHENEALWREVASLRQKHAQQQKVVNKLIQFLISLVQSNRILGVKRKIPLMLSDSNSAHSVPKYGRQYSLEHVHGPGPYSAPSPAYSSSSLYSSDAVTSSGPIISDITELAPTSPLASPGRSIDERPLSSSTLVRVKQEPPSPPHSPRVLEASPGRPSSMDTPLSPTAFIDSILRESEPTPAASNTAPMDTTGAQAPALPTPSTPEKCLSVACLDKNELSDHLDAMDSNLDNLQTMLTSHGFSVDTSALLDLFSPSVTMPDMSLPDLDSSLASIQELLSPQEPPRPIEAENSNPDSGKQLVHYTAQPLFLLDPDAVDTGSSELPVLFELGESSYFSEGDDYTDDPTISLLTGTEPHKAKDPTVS
# [29] = tested on: BJ; assay: cytotoxicity toward BJ-TERT-LT-ST fibroblasts, dose response, cell-based, RAS-independent, luminescence (AID 1935); assay type: functional; details: Homo sapiens;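 note: BJ fibroblasts immortalized with TERT plus LT and ST oncogenes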
# [30] = insulin promoter down-regulators in MIN6 cells, imaging, high-content screening, mouse beta cells (AID 1628); assay type: functional
# [31] = tested on: BJ; assay: cytotoxicity toward BJ-TERT fibroblasts, dose response, cell-based, RAS-independent, luminescence (AID 1933); assay type: functional; details: Homo sapiens
# [32] = biological target: T3, Oxysterols receptor LXR-beta (Homo sapiens, UniProt P55055); assay type: functional, cell-based;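 note: agonist activity at LXR measured by a cell-based luminescence readout across a dose range, run as a counterscreen for daf-12 agonists; HEK293 cells with Gal4-LXR fusion and GAL4-driven luciferase reporter; potency for activation of Gal4-LXR reporter so compounds are agonists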
# T3 sequence (P55055 whole entry): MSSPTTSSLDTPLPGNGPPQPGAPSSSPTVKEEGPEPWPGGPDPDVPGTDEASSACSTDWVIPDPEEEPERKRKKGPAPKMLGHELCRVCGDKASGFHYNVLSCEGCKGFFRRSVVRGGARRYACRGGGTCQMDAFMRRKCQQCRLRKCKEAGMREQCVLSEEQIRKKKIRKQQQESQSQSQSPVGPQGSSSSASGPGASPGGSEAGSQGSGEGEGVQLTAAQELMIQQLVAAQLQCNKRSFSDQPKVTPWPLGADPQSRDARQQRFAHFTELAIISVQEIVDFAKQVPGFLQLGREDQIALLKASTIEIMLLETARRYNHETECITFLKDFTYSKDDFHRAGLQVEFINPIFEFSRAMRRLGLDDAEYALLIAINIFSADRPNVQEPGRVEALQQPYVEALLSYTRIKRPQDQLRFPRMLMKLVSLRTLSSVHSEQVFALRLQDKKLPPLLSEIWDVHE
# Chain of Disintegrin and metalloproteinase domain-containing protein 17 (P78536 whole entry, the tested form may be a part): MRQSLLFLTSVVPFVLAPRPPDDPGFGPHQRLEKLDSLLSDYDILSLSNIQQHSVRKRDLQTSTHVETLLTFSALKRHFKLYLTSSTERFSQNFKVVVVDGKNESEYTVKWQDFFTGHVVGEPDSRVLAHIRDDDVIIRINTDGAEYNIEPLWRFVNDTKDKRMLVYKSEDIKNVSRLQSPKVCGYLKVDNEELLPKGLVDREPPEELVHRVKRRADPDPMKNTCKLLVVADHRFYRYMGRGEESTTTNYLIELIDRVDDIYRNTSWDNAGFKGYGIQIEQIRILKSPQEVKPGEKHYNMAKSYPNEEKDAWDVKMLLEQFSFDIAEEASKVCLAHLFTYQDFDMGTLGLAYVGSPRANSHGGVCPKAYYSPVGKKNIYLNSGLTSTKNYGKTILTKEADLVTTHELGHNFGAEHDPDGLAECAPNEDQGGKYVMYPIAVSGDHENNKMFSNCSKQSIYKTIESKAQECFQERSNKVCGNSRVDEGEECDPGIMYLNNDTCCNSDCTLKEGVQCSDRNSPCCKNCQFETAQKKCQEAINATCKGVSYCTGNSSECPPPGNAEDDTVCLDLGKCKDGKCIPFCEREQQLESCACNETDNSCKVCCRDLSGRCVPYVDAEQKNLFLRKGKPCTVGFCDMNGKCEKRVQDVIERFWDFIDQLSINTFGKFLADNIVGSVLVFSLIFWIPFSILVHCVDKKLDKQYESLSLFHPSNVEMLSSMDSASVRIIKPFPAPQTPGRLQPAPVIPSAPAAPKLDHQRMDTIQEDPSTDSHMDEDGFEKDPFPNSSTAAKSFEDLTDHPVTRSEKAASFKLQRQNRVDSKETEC
# Chain of 1-phosphatidylinositol 4,5-bisphosphate phosphodiesterase beta-3 (Q01970 whole entry): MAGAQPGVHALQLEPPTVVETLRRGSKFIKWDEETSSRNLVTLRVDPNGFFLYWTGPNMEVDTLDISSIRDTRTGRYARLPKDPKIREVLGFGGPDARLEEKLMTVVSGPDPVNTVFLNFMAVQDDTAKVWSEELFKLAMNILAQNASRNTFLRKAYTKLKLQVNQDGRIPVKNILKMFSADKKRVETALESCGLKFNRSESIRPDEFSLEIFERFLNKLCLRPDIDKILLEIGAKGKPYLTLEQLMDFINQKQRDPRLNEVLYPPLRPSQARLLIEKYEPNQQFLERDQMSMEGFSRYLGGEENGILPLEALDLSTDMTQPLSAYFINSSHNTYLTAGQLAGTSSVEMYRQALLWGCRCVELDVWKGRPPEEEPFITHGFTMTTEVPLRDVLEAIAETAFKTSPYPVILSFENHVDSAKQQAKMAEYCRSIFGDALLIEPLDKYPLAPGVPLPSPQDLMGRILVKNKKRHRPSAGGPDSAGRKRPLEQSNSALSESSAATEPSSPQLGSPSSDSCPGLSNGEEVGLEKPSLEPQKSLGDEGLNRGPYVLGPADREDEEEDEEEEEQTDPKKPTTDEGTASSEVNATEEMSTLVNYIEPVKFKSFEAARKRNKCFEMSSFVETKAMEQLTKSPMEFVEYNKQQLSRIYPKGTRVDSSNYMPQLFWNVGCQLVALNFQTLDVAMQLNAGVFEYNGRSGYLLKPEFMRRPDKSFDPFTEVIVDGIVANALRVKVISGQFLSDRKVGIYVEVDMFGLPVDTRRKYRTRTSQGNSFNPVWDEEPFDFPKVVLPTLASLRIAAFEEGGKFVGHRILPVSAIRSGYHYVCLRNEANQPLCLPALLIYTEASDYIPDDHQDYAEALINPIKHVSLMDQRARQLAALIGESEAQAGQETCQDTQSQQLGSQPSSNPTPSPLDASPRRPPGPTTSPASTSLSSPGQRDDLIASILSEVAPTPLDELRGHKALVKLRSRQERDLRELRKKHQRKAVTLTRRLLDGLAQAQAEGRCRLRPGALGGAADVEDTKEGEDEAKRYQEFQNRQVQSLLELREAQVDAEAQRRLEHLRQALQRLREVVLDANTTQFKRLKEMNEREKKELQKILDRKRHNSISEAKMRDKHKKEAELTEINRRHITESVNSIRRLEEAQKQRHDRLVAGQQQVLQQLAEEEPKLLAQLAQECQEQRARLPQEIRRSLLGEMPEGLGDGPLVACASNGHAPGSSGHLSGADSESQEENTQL
# Chain of 1-phosphatidylinositol 4,5-bisphosphate phosphodiesterase gamma-1 (P19174 whole entry): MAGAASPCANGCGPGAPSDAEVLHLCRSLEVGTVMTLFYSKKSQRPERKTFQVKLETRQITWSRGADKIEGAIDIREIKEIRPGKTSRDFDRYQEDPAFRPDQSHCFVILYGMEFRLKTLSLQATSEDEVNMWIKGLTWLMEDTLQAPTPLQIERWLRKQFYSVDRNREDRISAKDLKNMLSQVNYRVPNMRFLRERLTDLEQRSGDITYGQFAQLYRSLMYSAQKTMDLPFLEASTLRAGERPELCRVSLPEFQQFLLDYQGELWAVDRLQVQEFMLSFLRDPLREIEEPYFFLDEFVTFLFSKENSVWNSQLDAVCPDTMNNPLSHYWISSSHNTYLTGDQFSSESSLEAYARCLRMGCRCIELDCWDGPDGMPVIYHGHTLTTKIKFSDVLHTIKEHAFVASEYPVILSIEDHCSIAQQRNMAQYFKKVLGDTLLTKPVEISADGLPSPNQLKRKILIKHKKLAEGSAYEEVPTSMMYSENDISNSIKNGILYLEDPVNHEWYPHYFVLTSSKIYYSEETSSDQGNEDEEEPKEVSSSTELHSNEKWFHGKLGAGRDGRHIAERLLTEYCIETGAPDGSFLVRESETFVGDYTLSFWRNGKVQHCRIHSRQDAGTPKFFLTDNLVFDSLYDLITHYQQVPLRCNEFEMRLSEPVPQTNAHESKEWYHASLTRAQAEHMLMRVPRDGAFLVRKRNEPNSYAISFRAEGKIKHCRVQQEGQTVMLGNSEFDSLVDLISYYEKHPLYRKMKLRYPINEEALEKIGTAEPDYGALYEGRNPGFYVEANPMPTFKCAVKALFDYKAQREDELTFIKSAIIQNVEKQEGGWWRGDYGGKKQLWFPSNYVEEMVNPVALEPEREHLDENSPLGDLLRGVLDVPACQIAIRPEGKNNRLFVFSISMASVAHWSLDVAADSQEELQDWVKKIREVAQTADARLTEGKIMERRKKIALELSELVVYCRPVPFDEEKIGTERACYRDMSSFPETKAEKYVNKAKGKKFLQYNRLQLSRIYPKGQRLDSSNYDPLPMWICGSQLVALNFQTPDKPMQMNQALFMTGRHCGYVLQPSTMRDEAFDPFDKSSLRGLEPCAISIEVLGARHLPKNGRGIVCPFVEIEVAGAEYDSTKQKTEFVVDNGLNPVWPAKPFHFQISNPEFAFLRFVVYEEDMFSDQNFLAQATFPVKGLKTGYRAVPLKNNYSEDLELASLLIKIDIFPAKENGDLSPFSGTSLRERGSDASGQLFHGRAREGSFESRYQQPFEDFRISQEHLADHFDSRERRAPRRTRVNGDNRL
# Chain of fMet-Leu-Phe receptor (P21462 whole entry, the tested form may be a part): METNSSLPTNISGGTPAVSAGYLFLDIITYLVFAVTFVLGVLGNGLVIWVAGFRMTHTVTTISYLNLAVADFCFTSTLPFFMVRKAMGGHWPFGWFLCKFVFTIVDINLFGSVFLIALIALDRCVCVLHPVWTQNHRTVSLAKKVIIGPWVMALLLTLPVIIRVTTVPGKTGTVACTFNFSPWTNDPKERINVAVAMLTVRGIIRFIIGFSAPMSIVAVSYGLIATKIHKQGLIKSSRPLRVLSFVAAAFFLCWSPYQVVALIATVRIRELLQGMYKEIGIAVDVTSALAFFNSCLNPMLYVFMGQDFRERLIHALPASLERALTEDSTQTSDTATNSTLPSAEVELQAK
# Chain of Nonstructural protein 1 (Q194T2 whole entry): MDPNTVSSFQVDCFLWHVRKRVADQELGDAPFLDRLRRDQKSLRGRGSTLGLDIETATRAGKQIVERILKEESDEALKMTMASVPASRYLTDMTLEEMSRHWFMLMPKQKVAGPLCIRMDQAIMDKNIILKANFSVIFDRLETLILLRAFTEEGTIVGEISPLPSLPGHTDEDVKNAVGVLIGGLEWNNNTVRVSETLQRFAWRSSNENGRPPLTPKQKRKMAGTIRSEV
smiles,measurement,setting,value
S=C(Nc1cccc(Cl)c1)Nc1ccccc1Oc1ccccc1,AC50,[1],23.5 µM (active)
same,AC50,[2],23.5 µM (active)
CO[C@H]1CN(C)C(=O)c2cc(NC(=O)Nc3cc(Cl)cc(Cl)c3)ccc2OC[C@@H](C)NC[C@H]1C,AC50,[3],42.6 µM (active)
same,AC50,[4],> 52 µM (inactive)
CN(C)CC#CCC(O)(c1ccccc1)C1CCCC1 (stereo unspecified),EC50,[5],> 60 µM (not active)
same,EC50,[6],0.016 µM (active)
same,EC50,[7],< 0.1 µM (active)
O=c1[nH]c2ccccc2c(=O)n1-c1ccc(Cl)cc1Cl,IC50,[8],> 122 µM (inactive)
same,IC50,[9],> 122 µM (inactive)
CCOC(=O)Cc1cc(O)n2nc(C)c(-c3ccc(Cl)cc3)c2n1,Ki,[10],19 µM (inactive)
O=C(COC(=O)c1ccc(Cl)c(S(=O)(=O)N2CCCCCC2)c1)Nc1ccccc1,IC50,[11],> 69.5 µM (inactive)
same,IC50,[12],> 69.5 µM (inactive)
O=C(N/N=C/c1ccc(-c2ccccc2[N+](=O)[O-])o1)c1cncc(Br)c1,EC50,[13],6.71 µM (active)
COC(=O)C(Cc1ccc(O)cc1)NC(=O)C(C)NC(=O)c1ccc(C(C)(C)C)cc1 (stereo unspecified),IC50,[8],> 123 µM (inactive)
same,IC50,[9],> 123 µM (inactive)
Cc1nc2ccccn2c1C(=O)/C=C/c1ccc(F)cc1,AC50,[14],0.76 µM (active)
same,IC50,[15],> 25 µM (active)
same,CC50,[16],18.7 µM (active)
same,CC50,[17],25.6 µM (active)
CC(=O)c1cc(C(C)=O)c(C)nc1C,EC50,[18],> 167 µM (inactive)
Cc1cc(C)c(C)c(N=Nc2nc3ccccc3n2C)c1C,CC50,[19],> 40 µM (active)
same,IC50,[20],> 122 µM (inactive)
same,IC50,[21],17.6 µM (active)
Cn1c(Cl)cnc1C1CC(=O)c2cc(Cl)ccc2O1 (stereo unspecified),EC50,[22],8.32 µM (inconclusive)
same,EC50,[23],10.9 µM (active)
same,AC50,[14],16.9 µM (active)
same,IC50,[24],1.98 µM (active)
same,EC50,[25],7.73 µM (active)
same,EC50,[26],10.1 µM (active)
same,EC50,[27],> 120 µM (not active)
same,EC50,[28],38.8 µM (active)
same,CC50,[17],17.9 µM (active)
same,EC50,[29],7.45 µM (inconclusive)
same,IC50,[30],2.95 µM (active)
same,EC50,[31],8.07 µM (active)
CCOc1ccc(NC2=NC(=O)S/C2=C\c2ccc(O)cc2)cc1,EC50,[18],> 167 µM (inactive)
CC(C)C1C(=O)N(Cc2cn(CC3CCCCC3)nn2)CCS(=O)(=O)N1Cc1ccc(-c2ccccc2)cc1 (stereo unspecified),IC50,[11],> 69.5 µM (inactive)
same,IC50,[12],10.2 µM (inactive)
Cc1ccc2c(c1)c1nc3ccccc3nc1n2C,EC50,[13],1 µM (active)
CN(C)CCN(C(=O)c1ccc(S(=O)(=O)N2CCc3ccccc32)cc1)c1nc2ccc(F)cc2s1,EC50,[5],> 60 µM (not active)
same,EC50,[6],0.188 µM (active)
same,EC50,[7],< 0.1 µM (active)
O=c1[nH]cnc2cc(-c3ccccc3)sc12,EC50,[32],> 67.5 µM (inactive)
C[C@@H]1CN([C@@H](C)CO)C(=O)c2cc(NS(=O)(=O)c3ccc(F)cc3)ccc2O[C@@H](C)CCCCO[C@@H]1CN(C)Cc1ccc2c(c1)OCO2,AC50,[1],28.3 µM (active)
same,AC50,[2],28.3 µM (active)
Cc1c(C(=O)OC2CCC(C)CC2)[nH]c2c1C(=O)CCC2 (stereo unspecified),EC50,[32],> 67.5 µM (inactive)
